Measurements taken from patent EP0585371B1, “AROMATIC OLIGOMERIC COMPOUNDS USEFUL AS MIMICS OF BIOACTIVE MACROMOLECULES” (RHONE-POULENC RORER INTERNATIONAL (HOLDINGS) INC., priority 1991, dated 1992).

What was measured:
vWF Binding to Gp1b = target: T1, vWF Binding to Gp1b (Homo sapiens, UniProt P04275+P07359); assay: Inhibition of ristocetin-induced binding of 125I-vWF to formalin-fixed platelets; settings: ristocetin 1.0 mg/ml; for Ristocetin-Induced Inhibition of vWF Binding to Gp1b: at 100 µg/ml
T1 construct: multimeric vWF (isolated from human plasma cryoprecipitate); Formalin-fixed platelets, prepared according to the method of MacFarlane; from tissue; host or cells: vWF from human plasma cryoprecipitate; GPIb on formalin-fixed platelets
T1 sequence (P04275 764-2813 limits assumed): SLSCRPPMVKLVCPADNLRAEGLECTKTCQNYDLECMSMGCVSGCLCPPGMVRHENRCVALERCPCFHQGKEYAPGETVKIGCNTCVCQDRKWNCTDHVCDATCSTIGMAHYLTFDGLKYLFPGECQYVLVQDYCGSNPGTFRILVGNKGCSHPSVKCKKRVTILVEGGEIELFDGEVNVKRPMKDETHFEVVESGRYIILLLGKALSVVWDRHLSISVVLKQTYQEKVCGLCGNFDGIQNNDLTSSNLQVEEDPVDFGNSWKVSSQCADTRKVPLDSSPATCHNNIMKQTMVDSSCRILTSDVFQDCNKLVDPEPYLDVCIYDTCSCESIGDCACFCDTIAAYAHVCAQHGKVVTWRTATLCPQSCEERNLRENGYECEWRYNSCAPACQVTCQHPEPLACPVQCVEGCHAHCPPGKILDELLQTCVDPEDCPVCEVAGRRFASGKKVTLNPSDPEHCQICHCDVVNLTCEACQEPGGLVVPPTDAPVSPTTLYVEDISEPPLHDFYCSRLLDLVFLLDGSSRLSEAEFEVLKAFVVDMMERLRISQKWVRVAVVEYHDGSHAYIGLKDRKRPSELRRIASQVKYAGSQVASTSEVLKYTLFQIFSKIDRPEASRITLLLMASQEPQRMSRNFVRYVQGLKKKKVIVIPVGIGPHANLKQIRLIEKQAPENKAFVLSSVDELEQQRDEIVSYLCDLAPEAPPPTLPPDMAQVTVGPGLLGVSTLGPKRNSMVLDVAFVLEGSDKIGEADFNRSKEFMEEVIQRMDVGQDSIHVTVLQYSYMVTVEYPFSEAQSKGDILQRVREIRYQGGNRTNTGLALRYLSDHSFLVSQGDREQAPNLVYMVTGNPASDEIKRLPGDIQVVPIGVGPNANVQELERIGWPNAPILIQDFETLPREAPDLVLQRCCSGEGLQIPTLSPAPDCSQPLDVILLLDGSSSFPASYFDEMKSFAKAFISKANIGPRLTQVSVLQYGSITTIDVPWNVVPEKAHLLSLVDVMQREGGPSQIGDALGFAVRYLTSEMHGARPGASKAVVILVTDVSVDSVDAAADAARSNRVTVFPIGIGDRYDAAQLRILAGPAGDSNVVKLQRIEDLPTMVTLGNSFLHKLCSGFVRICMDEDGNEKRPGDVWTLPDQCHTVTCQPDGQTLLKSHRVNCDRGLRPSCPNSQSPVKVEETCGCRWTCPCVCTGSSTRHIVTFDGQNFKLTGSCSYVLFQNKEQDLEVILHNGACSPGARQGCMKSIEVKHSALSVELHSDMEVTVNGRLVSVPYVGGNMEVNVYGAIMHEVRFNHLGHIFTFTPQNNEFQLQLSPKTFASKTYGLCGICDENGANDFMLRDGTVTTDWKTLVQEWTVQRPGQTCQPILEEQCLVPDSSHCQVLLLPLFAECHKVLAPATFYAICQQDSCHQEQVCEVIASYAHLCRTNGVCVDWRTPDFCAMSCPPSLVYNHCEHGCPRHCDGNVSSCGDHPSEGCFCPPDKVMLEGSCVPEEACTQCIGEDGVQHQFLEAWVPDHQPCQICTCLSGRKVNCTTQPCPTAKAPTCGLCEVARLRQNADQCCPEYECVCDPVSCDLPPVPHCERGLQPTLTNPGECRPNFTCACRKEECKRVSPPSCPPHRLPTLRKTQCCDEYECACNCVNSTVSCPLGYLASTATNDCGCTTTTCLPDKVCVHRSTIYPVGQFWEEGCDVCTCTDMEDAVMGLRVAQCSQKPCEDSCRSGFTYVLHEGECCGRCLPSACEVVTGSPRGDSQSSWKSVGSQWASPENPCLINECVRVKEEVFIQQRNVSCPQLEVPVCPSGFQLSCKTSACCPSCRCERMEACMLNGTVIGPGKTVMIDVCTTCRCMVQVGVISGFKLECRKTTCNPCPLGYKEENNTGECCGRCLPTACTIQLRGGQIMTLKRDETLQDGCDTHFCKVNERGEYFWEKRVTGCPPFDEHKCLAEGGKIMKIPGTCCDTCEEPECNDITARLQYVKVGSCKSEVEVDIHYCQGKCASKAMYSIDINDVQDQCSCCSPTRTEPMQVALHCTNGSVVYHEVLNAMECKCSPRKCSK
T1 sequence (P07359 17-652): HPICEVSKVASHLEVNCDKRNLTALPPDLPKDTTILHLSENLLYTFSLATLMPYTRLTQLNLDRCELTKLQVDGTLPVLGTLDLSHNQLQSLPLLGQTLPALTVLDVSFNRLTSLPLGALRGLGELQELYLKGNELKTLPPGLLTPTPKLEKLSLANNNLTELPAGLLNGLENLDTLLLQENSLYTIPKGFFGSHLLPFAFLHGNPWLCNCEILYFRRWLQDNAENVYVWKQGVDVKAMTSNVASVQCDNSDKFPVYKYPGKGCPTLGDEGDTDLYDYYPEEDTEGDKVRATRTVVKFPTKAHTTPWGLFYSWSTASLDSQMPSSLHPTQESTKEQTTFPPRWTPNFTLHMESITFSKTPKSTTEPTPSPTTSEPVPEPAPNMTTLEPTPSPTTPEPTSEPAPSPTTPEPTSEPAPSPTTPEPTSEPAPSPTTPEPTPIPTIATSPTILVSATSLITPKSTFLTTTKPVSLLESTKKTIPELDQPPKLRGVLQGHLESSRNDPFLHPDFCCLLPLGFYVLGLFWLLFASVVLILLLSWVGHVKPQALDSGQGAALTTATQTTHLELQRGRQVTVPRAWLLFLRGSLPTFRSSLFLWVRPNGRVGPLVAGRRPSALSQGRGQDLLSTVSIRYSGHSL
Experimental: The binding of vWf (vonWillebrand Factor) to glycoprotein Ib is measured in one of two experimental systems, in the presence of either ristocetin or botrocetin as modulators of binding. The ristocetin modulated binding is described herein.
Formalin-fixed platelets, prepared according to the method of MacFarlane, D. et al., Thromb. Diath. Haemorrh. 34, 306-308 (1975), were preincubated at room temperature for 15 minutes with specified dilutions of oligomers according to the present invention. Ristocetin, (Sigma, St. Louis, MO) diluted to a final concentration of 1.0 mg/ml, and ^125I-labelled multimeric vWF (isolated from human plasma cryoprecipitate according to the method of Fulcher, C.A. et al. Proc. Natl. Acad. Sci. USA, 79, 1648-1652 (1982), and labelled according to the method of Fraker, P.J. et al. Biochem. Biophys. Res. Commun., 80, 849-857 (1978)) were then added to the incubation mixture, and the amount of ^125I- vWF bound to the platelets was determined. ^125I-vWF binding to the platelets was referenced against 100% binding which was defined as the amount of ^125I- vWF bound in the absence of added oligomer compound. The method for measuring vWF binding is reported in detail in Ruggeri et al., J. Clin. Invest., 72, 1-12, (1983), herein incorporated by reference.

normal pooled plasma = assay: Anticoagulation activity, Activated Partial Thromboplastin Time (APTT) test; settings: concentration required to double clotting time
Experimental: The following test measures anticoagulant activity of the oligomers of the present invention and utilizes the Activated Partial Thromboplastin Time (APTT) test, with the following procedures.
To an assay cuvette is added 100 µl of normal pooled plasma (George King Biomedical Inc., Kansas) and […] of a solution containing the test compound in aqueous 50 mM Tris hydrochloride at pH 7.5 (0.2 mg of sample in one ml buffer). The sample is placed in a MLA coagulation timer which automatically maintains the sample at 37°C for 2.5 minutes, 100 µl of actin activated cephaloplastin reagent is injected, kept 5 minutes, 100 µl of 35 mM CaCI is injected, and clot formation is determined photometrically and the clotting time recorded. Each example is examined at a variety of concentrations, generally from about .025 mg/ml to about 1 mg/ml, and the clotting times are graphed as a function of concentration. From the graphic results, the concentration required to double clotting time (ICDCT) is calculated by linear interpolation.

[1] = target: T2, ESb mouse lymphoma heparanase (Mus musculus, UniProt Q6YGZ1); assay: Inhibition of heparanase activity (degradation of labeled ECM heparan sulfate); format: biochemical; settings: 24 hours incubation with labeled ECM
T2 construct: endogenous in cells; host or cells: ESb mouse lymphoma cells
T2 sequence (Q6YGZ1 28-535): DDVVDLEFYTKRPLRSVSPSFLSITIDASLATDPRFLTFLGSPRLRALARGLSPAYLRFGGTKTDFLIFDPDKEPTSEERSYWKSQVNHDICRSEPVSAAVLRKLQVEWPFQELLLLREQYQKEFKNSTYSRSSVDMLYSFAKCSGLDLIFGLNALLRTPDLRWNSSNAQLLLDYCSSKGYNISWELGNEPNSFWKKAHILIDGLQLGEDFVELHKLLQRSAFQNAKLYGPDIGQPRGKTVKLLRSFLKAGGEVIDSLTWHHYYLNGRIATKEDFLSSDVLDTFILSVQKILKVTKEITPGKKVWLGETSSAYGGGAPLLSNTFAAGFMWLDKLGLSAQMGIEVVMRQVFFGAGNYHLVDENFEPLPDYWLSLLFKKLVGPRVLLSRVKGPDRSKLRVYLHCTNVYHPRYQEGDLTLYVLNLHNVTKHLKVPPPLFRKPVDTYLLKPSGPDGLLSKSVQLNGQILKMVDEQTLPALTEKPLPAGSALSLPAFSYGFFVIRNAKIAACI
Experimental: Heparanase is an endoglucuronidase capable of degrading […] (HS) at specific intrachain sites.
The ability of compounds of the present invention to inhibit lymphomacell derived heparanase is tested in the assay system described by Vlodavsky et al., Cancer Research 43, 2704-2711 (1983). […] labeled ECM is incubated for 24 hours with ESb mouse lymphoma heparanase in the presence of various concentrations of the oligomers tested. Degradation of the HS is followed by gel filtration of the supematants. Heparanase activity is expressed as the total amount of labeled low-molecular-weight fragments released from the EMC substrate.

[2] = system: human fixed thrombin activated platelets; assay: Platelet aggregation inhibition (fibrinogen-induced); format: cell-based; settings: human fibrinogen added
Experimental: The method for measuring platelet aggregation inhibition is essentially that of Ruggeri, et al., Proc. Natl. Acad. Sci. USA, 83, 5708-5712 (1986), using formalin-fixed platelets as prepared by Plow, et al., Proc. Natl. Acad. Sci. USA, 79, 3711-3715 (1982). A given amount of the compound of the present invention or other compound to be tested (10 to 100 µl of a 1 mg/ml solution) is incubated at 37°C with 400 µl of human fixed thrombin activated platelets for 2 minutes. 12.5 µl of human fibrinogen solution is added and aggregation is monitored using a platelet aggregation profiler (Model PAP-4). Controls consist of fibrinogen added to incubated platelets and the resulting aggregation is considered as 100%. Percent inhibition in the presence of a given concentration of test compound versus concentration of the compound is plotted and the concentration required to give 50% inhibition (IC50) is determined.

| Ristocetin-Induced Inhibition of vWF Binding to Gp1b IC50 (vWF Binding to Gp1b) | IC50 (vWF Binding to Gp1b) | % Inhibition of Heparanase Activity (5µg/ml) [1] | Platelet Aggregation IC50 [2] | Ristocetin-Induced Inhibition of vWF Binding to Gp1b (vWF Binding to Gp1b) | Structure (SMILES) | APTT ICDCT (normal pooled plasma) |
| --- | --- | --- | --- | --- | --- | --- |
| >100 µg/mL |  |  |  |  | COc1ccc(CCC(=O)O)c(COc2cc(CCC(=O)O)c(COc3cc(CCC(=O)O)c(COc4cc(CCC(=O)O)c(COc5cc(CCC(=O)O)ccc5OC)cc4OC)cc3OC)cc2OC)c1 [Ex12, Step 11, 2-[4-[4-[4-[[5-(2-carboxyethyl)-2-methoxy]phenoxymethyl]-[5-(2-carboxyethyl)-2-methoxy]phenoxymethyl]-[5-(2-carboxyethyl)-2-methoxy]phenoxymethyl]-[5-(2-carboxyethyl)-2-methoxy]phenoxymethyl]-4-methoxyhydrocinnamic acid] | >250 µg/mL |
|  | > 143 µM |  |  |  | O=C(O)CCc1ccc(O)c(Cc2cc(CCC(=O)O)cc(Cc3cc(CCC(=O)O)cc(Cc4cc(CCC(=O)O)ccc4O)c3O)c2O)c1 [Ex 1, Step 3, bis-[5-(2-carboxyethyl)-3-[5-(2-carboxyethyl)-2-hydroxybenzyl]2-hydroxyphenyl]methane] | >250 µg/mL |
|  |  | 20% | >1000 µg/mL |  | COc1cc(C)c(CCC(=O)O)cc1Cc1cc(OC)c(Cc2cc(OC)c(Cc3cc(OC)c(Cc4cc(OC)c(Cc5cc(OC)c(Cc6cc(OC)c(Cc7cc(O)ccc7CCC(=O)O)cc6CCC(=O)O)cc5CCC(=O)O)cc4CCC(=O)O)cc3CCC(=O)O)cc2CCC(=O)O)cc1CCC(=O)O [Ex 5, Step 2, 5-[4-[4-[4-[4-[4-[4-[[2-(2-carboxyethyl)-5-hydroxy]benzyl]-[2-(2-carboxyethyl)-5-methoxy]benzyl]-[2-(2-carboxyethyl)-5-methoxy]benzyl]-[2-(2-carboxyethyl)-5-methoxy]benzyl]-[2-(2-carboxyethyl)-5-methoxy]benzyl]-[2-(2-carboxyethyl)-5-methoxy]benzyl]-[2-(2-carboxyethyl)-5-methoxy]benzyl]-4-methoxy-2-methylhydrocinnamic acid] | 37 µg/mL |
|  |  |  | >1000 µg/mL | 42% at 100 µg/ml | O=C(O)CCc1cc(Cc2cc(O)c(Cc3cc(O)c(Cc4cc(O)ccc4CCC(=O)O)cc3CCC(=O)O)cc2CCC(=O)O)c(O)cc1CCc1cc(O)c(Cc2cc(O)c(Cc3cc(O)c(Cc4cc(O)ccc4CCC(=O)O)cc3CCC(=O)O)cc2CCC(=O)O)cc1CCC(=O)O [Ex 6, 1,2-bis-[4-[4-[4-[[2-(2-carboxyethyl)-5-hydroxy]benzyl]-[2-(2-carboxyethyl)-5-hydroxy]benzyl]-(2-(2-carboxyethyl)-5-hydroxy]benzyl]-[2-(2-carboxyethyl)-5-hydroxy]phenyl]ethane] | 387 µg/mL |
|  |  |  |  | 17% at 100 µg/ml | COc1cc(CCc2cc(OC)c(Cc3cc(OC)c(Cc4cc(OC)c(Cc5cc(O)ccc5CCC(=O)O)cc4CCC(=O)O)cc3CCC(=O)O)cc2CCC(=O)O)c(CCC(=O)O)cc1Cc1cc(OC)c(Cc2cc(OC)c(Cc3cc(O)ccc3CCC(=O)O)cc2CCC(=O)O)cc1CCC(=O)O [Ex 7, 1,2-bis-[4-[4-[4-[[2-(2-carboxyethyl)-5-hydroxy]benzyl]-[2-(2-carboxyethyl)-5-methoxy]benzyl]-[2-(2-carboxyethyl)-5-methoxy]benzyl]-[2-(2-carboxyethyl)-5-methoxy]phenyl]ethane] | 500 µg/mL |
|  |  | 70% |  |  | COc1cc(Cc2cc(CCC(=O)O)c(C)cc2O)c(CCC(=O)O)cc1Cc1cc(OC)c(Cc2cc(OC)c(Cc3cc(OC)c(Cc4cc(OC)c(Cc5cc(OC)c(Cc6cc(OC)c(Cc7cc(OC)c(Cc8cc(OC)c(Cc9cc(OC)c(Cc%10cc(OC)c(Cc%11cc(OC)c(Cc%12cc(OC)c(Cc%13cc(OC)c(Cc%14cc(O)ccc%14CCC(=O)O)cc%13CCC(=O)O)cc%12CCC(=O)O)cc%11CCC(=O)O)cc%10CCC(=O)O)cc9CCC(=O)O)cc8CCC(=O)O)cc7CCC(=O)O)cc6CCC(=O)O)cc5CCC(=O)O)cc4CCC(=O)O)cc3CCC(=O)O)cc2CCC(=O)O)cc1CCC(=O)O [Ex 8] | 35 µg/mL |
|  |  | 52% | 319 µg/mL |  | COc1cc(CCc2cc(OC)c(Cc3cc(OC)c(Cc4cc(OC)c(Cc5cc(OC)c(Cc6cc(OC)c(Cc7cc(OC)c(Cc8cc(OC)c(Cc9cc(O)ccc9CCC(=O)O)cc8CCC(=O)O)cc7CCC(=O)O)cc6CCC(=O)O)cc5CCC(=O)O)cc4CCC(=O)O)cc3CCC(=O)O)cc2CCC(=O)O)c(CCC(=O)O)cc1Cc1cc(OC)c(Cc2cc(OC)c(Cc3cc(OC)c(Cc4cc(OC)c(Cc5cc(OC)c(Cc6cc(OC)c(Cc7cc(O)ccc7CCC(=O)O)cc6CCC(=O)O)cc5CCC(=O)O)cc4CCC(=O)O)cc3CCC(=O)O)cc2CCC(=O)O)cc1CCC(=O)O [Ex 9, 1,2-bis-[4-[4-[4-[4-[4-[4-[4-[[2-(2-carboxyethyl)-5-hydroxy]benzyl]-[2-(2-carboxyethyl)-5-methoxy]benzyl]-[2-(2-carboxyethyl)-5-methoxy]benzyl]-[2-(2-carboxyethyl)-5-methoxy]benzyl]-[2-(2-carboxyethyl)-5-methoxy]benzyl]-[2-(2-carboxyethyl)-5-methoxy]benzyl]-[2-(2-carboxyethyl)-5-methoxy]benzyl]-[2-(2-carboxyethyl)-5-methoxy]phenyl]ethane] | 105 µg/mL |
|  |  |  |  |  | COC(=O)CCc1cc(OCc2cc(OC)c(OCc3cc(OC)c(OCc4cc(OC)c(OC(C)=O)cc4CCC(=O)OC)cc3CCC(=O)OC)cc2CCC(=O)OC)c(OC)cc1CO [Ex 10, Step 13] | >250 µg/mL |
